According to paper PMC5841303, “In silico screening for human norovirus antivirals reveals a novel non-nucleoside inhibitor of the viral polymerase” (Scientific Reports, 2018):
pIC50: −log10 of the molar value. Like-named read-outs stand apart in the source and are kept apart here.

Tests used:
[1] = target: human norovirus Sydney 2012 RdRp (Norovirus GII.4 (Norwalk virus, human norovirus), UniProt K4L8Z7); experiment: Fluorescent de novo RdRp activity assay (PicoGreen, poly(C) template); assay type: biochemical; conditions: for inhibition at 100 µM: read-out: inhibition of human norovirus RdRp activity, 100 µM
Protocol: The 62 compounds identified in silico were screened for inhibition of norovirus RdRp activity using an in vitro fluorescent, de novo RdRp assay. Compounds were tested at fixed concentrations of 10 µM and 100 µM, and compared to mock treated samples containing the vehicle only (0.5% DMSO [vol/vol]) (Fig. 4A,B). […] For certain compounds, significant insolubility was observed, coupled with either inherent fluorescence quenching (positive y-axis values on Fig. 4A,B) or enhancement of the fluorescence signal (negative y-axis values).
The newly synthesised compounds, including the re-prepared hit 13 and some synthesis intermediates (Table 1), were initially evaluated on norovirus Sydney 2012 RdRp activity in vitro using a quantitative fluorescent assay. Compounds were tested at a fixed concentration of 10 μM and compared to the relative activity of mock treated samples.
Recombinant calicivirus RdRps (GenBank accession numbers) norovirus GII.Pe/GII.4 Sydney 2012 (KT239579), MNV GV CW1 (DQ285629), RHDV Czech V351 (KF594473.1), and SaV GI.1 Mc114 (AY237422) were expressed and purified as described previously[60],[61]. RdRp resistance mutants were generated using the QuikChange site-directed mutagenesis kit (Agilent Technologies, Santa Clara, CA, USA) and confirmed by Sanger sequencing.
(§1) Fluorescent RdRp activity assays were carried out as previously described[14],[62]. Briefly, RdRp activity was quantified by monitoring the formation of double-stranded RNA (dsRNA) from a single stranded homopolymeric template, poly(C) (Sigma Aldrich, St Louis, MO, USA), using the fluorescent dye PicoGreen (Life Technologies, Carlsbad, CA, USA). RdRp assays were performed in 384-well plates, and each reaction mixture contained 400 ng enzyme, 45 µM GTP, 10 ng/µL poly(C) RNA, 2.5 mM MnCl2, 5 mM dithiothreitol, (DTT), 0.01% bovine serum albumin (BSA), and 0.005% Tween 20 in 20 mM Tris-HCl, pH 7.5, with a final reaction volume of 25 µL. The previous published norovirus NNI NIC02 was used as a positive control. RdRps were incubated for 10 mins at 30 °C in the presence of the test compounds or the compound vehicle DMSO (0.5% vol/vol) before addition into the reaction mixture, which was then allowed to run 15 min at 30 °C then terminated with 10 mM EDTA, followed by PicoGreen staining and dsRNA quantitation. GraphPad Prism V6.05 (La Jolla, CA, USA) was used to plot the IC50 values. In cases where fluorescent enhancement was recorded for a compound instead of inhibition, a secondary gel-based polymerase activity assay was used as a counter-screen as described below, to exclude the possibility of RdRp activity enhancement (Supplementary Fig. S1). Primed elongation activity was examined in a gel-based assay as previously described[16],[63] using the RNA template (PE44-NoV, Fig. 4D). Gels were imaged using BioRad (Hercules, CA, U.SA) Geldoc Universal Hood II, running BioRad Image Lab software, V4.1, build 16. Antagonism was calculated using Compusyn software V1.0[59]. 54 and PPNDS (4:1 ratio) were tested alone and together against norovirus Sydney 2012 RdRp.

[2] = Observed compound solubility; assay type: physicochemical; conditions: assay conditions / 100% DMSO
Protocol: Therefore, they were counter-screened at 100 µM in a secondary gel-based assay (Supplementary Fig. S1).
To confirm RdRp inhibition and to exclude any potential false positives from the first fluorescence RdRp assay, the eight selected compounds (Fig. 4C) were then assessed using a gel-shift enzyme activity assay.
Dose-dependent inhibitory response curves were used to establish IC50 values for the five test compounds (Table 2). […] Therefore, 42b was too insoluble to attain a reliable confidence interval in the dose-response experiments and was not examined further. However, from the other four compounds, hit 11 and its phenyl derivative 54 gave the lowest IC50 values, 3–5 fold improved compared with 13 and its derivative 42a, confirming increased RdRp inhibitory activity associated with this scaffold.

norovirus RdRp = experiment: Counter-screen gel-shift RdRp assay (primed elongation of PE44-NoV template); assay type: biochemical, human norovirus; conditions: for RdRp activity enhancement in gel-based counter-screen: 100 µM; for inhibition of primed elongation activity (gel-shift): fixed concentration of 100 µM
Protocol: In this assay, a 32 nucleotide RNA template (PE44-NoV) is extended to 44 nucleotides in the presence of an active RdRp[16]. […] Inhibition of primed elongation of the PE44-NoV template was examined at a fixed concentration of 100 µM (Fig. 4D). In the absence of inhibition (0.5% DMSO vehicle only) the RNA template was extended to 44 nucleotides (Fig. 4D), evidenced by an upward gel shift and the appearance of the second, higher band.
as §1

MNV = MNV plaque reduction assay in cell culture; assay type: cell-based, murine norovirus
Protocol: As mentioned above, the only robust cellular assay available for the evaluation of potential norovirus inhibitors is the closely related MNV assay. […] Consequently, 54 was further assessed to determine the IC50 value against MNV RdRp activity using an in vitro fluorescent assay. […] 54 was then assessed for cytotoxicity against RAW264.7 mouse macrophage cells using a cell viability assay. […] Using the plaque reduction assay, the inhibitory effects of 54 (0.5–50 µM) were examined against MNV plaque formation in cell culture. […] Compound solubility and its cell-membrane permeability properties could be further improved with structure-activity relationship enhancement of the 54 scaffold to facilitate cellular uptake, and therefore to increase antiviral efficacy. Work on this aspect is ongoing, and it will be reported in due course.
MNV-1 (CW1) culture assays were performed as previously described. Replication was examined using plaque assays[58],[64],[65]. Cytotoxicity was examined using a CellTitre Blue (Promega, Madison, WI, USA) viability assay as described previously.

[3] = 10 µM, initial screen of purchased compounds
[4] = 100 µM, initial screen of purchased compounds
[5] = read-out: inhibition of human norovirus RdRp activity, 10 µM, initial screen of purchased compounds
[6] = initial screen of purchased compounds
[7] = read-out: inhibition of norovirus Sydney 2012 RdRp activity, 10 µM, secondary screen of newly synthesised compounds
[8] = 10 µM, secondary screen of newly synthesised compounds

CCC(O)CC(C(=O)NNc1ccccc1)C(=O)NNc1ccccc1 (stereo not drawn) [AE-562/12222591]
inhibition of human norovirus RdRp activity [1, 3]: over 25% | inhibition of human norovirus RdRp activity [1, 4]: over 25% | solubility (observation) [2]: precipitated heavily in 100% DMSO

O=C(O)c1ccc2nc(-c3cccc(-c4nc5ccc(C(=O)O)cc5[nH]4)c3)[nH]c2c1 [AJ-077/33270018]
inhibition of human norovirus RdRp activity [1, 4]: apparent RdRp enhancement | RdRp activity enhancement in gel-based counter-screen (norovirus RdRp): not seen in the gel-based assay | solubility (observation) [2]: insolubility

COc1cccc(NC(=O)Cn2nc(C(F)(F)F)cc2C2CC2)c1 [AK-968/41925073]
inhibition of human norovirus RdRp activity [1, 3]: over 25% | inhibition of human norovirus RdRp activity [1, 4]: over 25% | solubility (observation) [2]: precipitated heavily in 100% DMSO

O=C(Nc1ccc(O)c(-c2nc3ccccc3o2)c1)c1cccnc1 [AP-970/12851847]
inhibition of human norovirus RdRp activity [1, 4]: apparent RdRp enhancement | RdRp activity enhancement in gel-based counter-screen (norovirus RdRp): not seen in the gel-based assay | solubility (observation) [2]: insolubility

O=C(O)c1ccccc1-c1ccccc1C(=O)Nc1cccc(O)c1 [Compound 6]
inhibition at 10 µM [1, 5]: > 25% | inhibition at 100 µM [1, 6]: > 50%

CC(NC(=O)CCC(=O)Nc1ccccc1O)c1ccccc1 (stereo not drawn) [Compound 7]
inhibition at 10 µM [1, 5]: > 25% | inhibition at 100 µM [1, 6]: > 50%

O=C(C1=C(O)C(=O)N(Cc2ccco2)C1c1cccc(O)c1)c1ccc2c(c1)OCCO2 (stereo not drawn) [Compound 8]
inhibition at 10 µM [1, 5]: > 25% | inhibition at 100 µM [1, 6]: > 25%

COc1ccc(N2C(=O)c3ccc(C(=O)O)cc3C2=O)cc1NC(=O)c1ccccc1 [Compound 9]
inhibition at 10 µM [1, 5]: > 25% | inhibition at 100 µM [1, 6]: > 50%

Cc1ccc(NC(=O)CSc2n[nH]c(-c3ccccc3O)n2)c(C)c1 [Compound 10]
inhibition at 10 µM [1, 5]: > 25% | inhibition at 100 µM [1, 6]: > 25%

Cc1ccc(N2NC(=O)C(=Cc3ccc(-c4ccc(S(=O)(=O)Nc5nccs5)cc4)o3)C2=O)cc1 [Compound 11]
pIC50 [1]: 5.30 | inhibition at 10 µM [1, 5]: > 25% | inhibition at 100 µM [1, 6]: > 50% | inhibition of primed elongation activity (gel-shift) (norovirus RdRp): complete inhibition | inhibition at 10 µM (MNV; 10 µM, read-out: inhibition of MNV plaque formation): 37.1% | cytotoxicity seen in plaque assay (MNV; 100 µM): cytotoxic

C/C(=N\NC(=O)c1ccccc1O)c1ccc(O)cc1O [Compound 12]
inhibition at 10 µM [1, 5]: > 25% | inhibition at 100 µM [1, 6]: > 25%

Cc1cc(C(=O)O)ccc1-c1ccc(/C=C2\SC(=O)N(CC(=O)N3CCOCC3)C2=O)o1 [Compound 13]
pIC50 [1]: 4.82 | inhibition at 10 µM [1, 5]: > 25% | inhibition at 100 µM [1, 6]: > 50% | inhibition at 10 µM [1, 7]: 25% | inhibition of primed elongation activity (gel-shift) (norovirus RdRp): complete inhibition | inhibition at 100 µM (MNV; 100 µM, read-out: inhibition of MNV plaque formation): 21%

O=C1NC(=O)/C(=C/c2ccc(-c3ccccc3)o2)S1 [Compound 18a]
inhibition of norovirus Sydney 2012 RdRp activity [1, 8]: lacked RdRp inhibitory activity

Cc1ccccc1-c1ccc(/C=C2\SC(=O)NC2=O)o1 [Compound 18c]
inhibition of norovirus Sydney 2012 RdRp activity [1, 8]: lacked RdRp inhibitory activity

O=C(CN1C(=O)S/C(=C\c2ccc(-c3ccccc3)o2)C1=O)N1CCOCC1 [Compound 23a]
inhibition of norovirus Sydney 2012 RdRp activity [1, 8]: complete loss of activity

COC(=O)c1ccc(-c2ccc(/C=C3\SC(=O)N(CC(=O)N4CCOCC4)C3=O)o2)cc1 [Compound 23b]
inhibition of norovirus Sydney 2012 RdRp activity [1, 8]: complete loss of activity

Cc1ccccc1-c1ccc(/C=C2\SC(=O)N(CC(=O)N3CCOCC3)C2=O)o1 [Compound 23c]
inhibition of norovirus Sydney 2012 RdRp activity [1, 8]: complete loss of activity

O=C(CN1C(=O)S/C(=C\c2ccc(-c3ccccc3)o2)C1=O)N1CCCCC1 [Compound 24a]
inhibition of norovirus Sydney 2012 RdRp activity [1, 8]: loss of inhibitory activity

COC(=O)c1ccc(-c2ccc(/C=C3\SC(=O)N(CC(=O)N4CCCCC4)C3=O)o2)cc1 [Compound 24b]
inhibition at 10 µM [1, 7]: 60% | inhibition of primed elongation activity (gel-shift) (norovirus RdRp): no appreciable effect

Cc1ccccc1-c1ccc(/C=C2\SC(=O)N(CC(=O)N3CCCCC3)C2=O)o1 [Compound 24c]
inhibition of norovirus Sydney 2012 RdRp activity [1, 8]: loss of inhibitory activity

COC(=O)c1ccc(-c2ccc(/C=C3\SC(=O)N(CC(=O)N4CCCCC4)C3=O)o2)c(C)c1 [Compound 24d]
inhibition at 10 µM [1, 7]: 25%

O=C1NC(=O)/C(=C/c2ccc(-c3ccc(C(=O)O)cc3)o2)S1 [Compound 27]
inhibition of norovirus Sydney 2012 RdRp activity [1, 8]: lacked RdRp inhibitory activity

O=C(O)c1ccc(-c2ccc(/C=C3\SC(=O)N(CC(=O)N4CCOCC4)C3=O)o2)cc1 [Compound 28]
inhibition at 10 µM [1, 7]: ~50%

COC(=O)c1ccc(-c2ccc(/C=C3\SC(=O)N(CC(=O)N4CCOCC4)C3=O)o2)c(C)c1 [Compound 39d]
inhibition of norovirus Sydney 2012 RdRp activity [1, 8]: complete loss of activity

Cc1cc(C(=O)O)ccc1-c1ccc(/C=C2\SC(=O)N(CC(=O)N3CCCCC3)C2=O)o1 [Compound 40e]
inhibition of norovirus Sydney 2012 RdRp activity [1, 8]: abolished the activity

COC(=O)c1ccc(-c2ccc(/C=C3\SC(=O)N(CC(=O)Nc4ccccc4)C3=O)o2)cc1 [Compound 42b]
inhibition at 10 µM [1, 7]: > 50% | inhibition of primed elongation activity (gel-shift) (norovirus RdRp): near complete abolishment of norovirus RdRp activity | solubility (observation) [2]: significant solubility issues

Cc1ccc(N2NC(=O)/C(=C\c3ccc(-c4ccc(S(=O)(=O)Nc5ccccc5)cc4)o3)C2=O)cc1 [Compound 55]
inhibition of primed elongation activity (gel-shift) (norovirus RdRp): minimal inhibition
